The source of these data is patent US20160025704A1, “METHODS FOR IDENTIFYING NEUROPROTECTIVE PKC ACTIVATORS” (priority 2013, published 2016).

Series [1] deals with TA 100 cells & TA 1535 cells / TA 98 cells. The experiment in a line: AMES testing, overall result (mutagenic potential). In kind it is cell-based. An excerpt: (§1) The AMES test is a rapid screening of the mutagenic potential of chemical compounds. […] Between 50% and 70% of all known carcinogens test positive in the AMES test.
The test system of series [2] is ECE. Description: ECE activity in SH-SY5Y cells (fluorometric). In kind it is cell-based. The note with it: 1 μM, compared to ethanol alone. The protocol: (§2) Aβ can be degraded in vivo by a number of enzymes, including insulin degrading enzyme (insulysin), neprilysin, and ECE (FIG. 12). Because PKC-ε overexpression has been reported to activate ECE (Choi et al., Proc. Natl. Acad. Sci. USA. 2006; 103: 8215-20), the effect of PKC activators on ECE was analyzed. Candidate PKC activators were added to either SH-SY5Y cells (Bryo—0.27 nM, DCP-LA—1 μM, and DHA-CP6 1 μM) or cultured neurons (DHA-CP6—1 μM, EPA-CP5— 1 μM, and AA-CP4— 1 μM), and grown on either 12- or 24-well plates. After various time periods, the cells were collected and ECE activity was measured fluorometrically. Results are shown below in FIG. 13. *, p<0.05; **, p<0.001.
PKCε overexpression has been reported to activate endothelin converting enzyme (ECE). The effect of PKC activators on ECE was measured here with Bryostatin, DCP-LA, and DHA-CP6. […] Protocol: Bryostatin (0.27 nM), DCP-LA (1 μM), DHACP6 (1 μM), EPA-CP5 (1 μM), AA-CP4 (1 μM), or ethanol alone were added to SH-SYSY cells growing on 12- or 24-well plates. After various periods of time, the cells were collected and ECE activity was measured fluorometrically as showing in FIG. 34 below (* p<0.05, ** p<0.001).

In series [3] the test system is ECE. The experiment in a line: ECE activity in cultured neurons (fluorometric). In kind it is cell-based. Conditions: 1 μM, compared to ethanol alone. As to the method:
as §2

The test system of another series is TA 1535 Cells. The experiment in a line: AMES test, TA1535 cells. In kind it is cell-based. The note with it: plate count.
Excerpt: as §1

Series [4] is described as follows: Internal toxicity study: Clinical Chemistry Panel & Hematology Panel. In kind it is in vivo. Conditions: in vivo. The protocol: Internal tests measuring various biological markers were performed 24 hours after administering a PKC activator (bryostatin, cyclopropanated arachidonic acid, DCPLA, and DHACP6) at 10× the therapeutic dose. The results are shown below in Tables 5-7.

Another series deals with T1, PKC-ε (Homo sapiens, UniProt Q02156).
T1 sequence (Q02156 1-737): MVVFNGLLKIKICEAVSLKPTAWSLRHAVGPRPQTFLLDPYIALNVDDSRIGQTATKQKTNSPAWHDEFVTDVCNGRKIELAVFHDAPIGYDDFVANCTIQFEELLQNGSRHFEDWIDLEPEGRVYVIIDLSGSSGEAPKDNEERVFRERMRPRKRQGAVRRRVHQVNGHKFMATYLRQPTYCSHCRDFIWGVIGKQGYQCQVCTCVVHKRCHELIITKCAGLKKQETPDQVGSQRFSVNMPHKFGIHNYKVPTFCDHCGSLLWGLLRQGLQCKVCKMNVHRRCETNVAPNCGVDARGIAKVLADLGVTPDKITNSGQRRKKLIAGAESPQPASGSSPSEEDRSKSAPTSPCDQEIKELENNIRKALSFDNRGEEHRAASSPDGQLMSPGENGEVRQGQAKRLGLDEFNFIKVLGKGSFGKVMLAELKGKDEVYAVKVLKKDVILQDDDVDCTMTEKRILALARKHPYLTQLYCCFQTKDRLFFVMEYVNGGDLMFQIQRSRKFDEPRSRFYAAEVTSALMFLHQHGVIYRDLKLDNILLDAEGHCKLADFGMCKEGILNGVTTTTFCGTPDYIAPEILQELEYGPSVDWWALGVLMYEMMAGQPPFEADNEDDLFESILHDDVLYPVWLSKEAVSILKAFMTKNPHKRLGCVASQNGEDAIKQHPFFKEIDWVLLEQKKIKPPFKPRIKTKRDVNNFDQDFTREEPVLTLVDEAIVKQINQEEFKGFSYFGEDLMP
Description: Activation of purified PKC isozymes. In kind it is biochemical. The note with it: purified PKC isozymes (9 ng), preincubated 5 minutes at room temperature. The protocol:
Protocol: Purified PKC-α, βII, γ, δ, or ε (9 ng) was preincubated for 5 minutes at room temperature with the following PKC activators: (A) DHA-CP6, (B) EPA-CP5, (C) AA-CP4, (D) DCP-LA, (E) “other cyclopropaneated and epoxidized fatty acids, alcohols, and methyl esters.” followed by measurement of PKC activity as described under Experimental Procedures. Results are shown below in FIG. 6.

The subject of a further series is sAPP-α. The experiment in a line: sAPP-α secretion in an Alzheimer's disease cell line. In kind it is cell-based, human. Conditions: 100 nM pretreatment, bryostatin 0.1 nM. The protocol: Protocol: An Alzheimer's disease cell line was incubated with bryostatin (0.1 nM), Benzolactam (0.1 nM or 1.0 μM), DMSO, pre-treated with staurosporin (100 nM) plus bryostatin (0.1 nM) for three hours. […] The graph units are relative to the vehicle, DMSO, alone (1).

Series [5] has as its system healthy brown Norway rats. The experiment in a line: Learning, memory and mushroom spine synapses in healthy rats, water maze training. The note with it: PKCα inhibitor given with bryostatin and water maze training. In kind it is in vivo. An excerpt:
Protocol: Non-disease, healthy brown Norway rats (at 4-5 months old) were used in this study. […] (Nv=naîve controls; Sw=swim controls; Mz=water maze treatment; and Mz/Br=water maze treatment plus bryostatin treatment).

Regarding `CCC1CC1CC1CC1CC1CC1CC1CC1CC1CC1CC1CC1CCC(=O)O` (centres unmarked) [DHA-CP6], in series [1], the AMES testing result is “not mutagenic” and the “Result (Mutagenic Potential)” value was “Result: Not mutagenic, p > 0.05”. In the series on ECE [2], the ECE activity result is reported as “sustained increase in ECE activity”. Besides, the ECE activity result in the series with ECE [3] is recorded as “increase in ECE activity”.
For `CCC1CC1CC1CC1CC1CC1CC1CC1CC1CC1CCCC(=O)O` (centres unmarked) [EPA-CP5], in the series on ECE [3], the ECE activity entry is “increase in ECE activity”.
In the series on TA 1535 Cells (0.05 mM, TA 1535 Cells), cyclopropanated arachidonic acid gave a Negative of 93 and a Positive of 3. In the series with TA 1535 Cells (0.125 mM, TA1535 Cells), the Negative was found to be 95 and the Positive was 1. In the series with TA 1535 Cells (0.5 mM, TA1535 Cells), this compound showed a Negative of 94 and a Positive of 2. In the series on TA 1535 Cells (1 mM, TA1535 Cells), this compound showed a Negative of 93 and a Positive of 3. In series [1], the AMES testing result is “not mutagenic” and the “Result (Mutagenic Potential)” value is given as “Result: Not mutagenic, p > 0.05”. Also, in series [4], the “ALB (Albumin)” value is given as 97.0 ± 2.6, the “ALP (Alkaline phosphatase)” value was found to be 93.8 ± 6.6, the “ALT (Alanine aminotransferase)” value was 92.7 ± 5.4 and the “AST (Aspartate aminotransferase)” value is on record as 107.0 ± 10.3. In series [4], the “BA (Basophils)” value is 400.0 ± 200.0, the “BUN (Blood urea nitrogen)” value came to 92.0 ± 6.7, the “CA (Calcium)” value stood at 101.0 ± 3.0 and the “CO2-LC (Bicarbonate)” value was found to be 100.0 ± 5.4. Besides, in series [4], the “CREAT (Creatinine)” value was 92.9 ± 5.2, the “EO (Eosinophils)” value was 500.0 ± 250.0, the “GLU (Glucose)” value is given as 84.8 ± 2.4 and the “HCT (Hematocrit)” value worked out at 93.3 ± 2.3. In addition, in series [4], the “Hb (Hemoglobin)” value came out at 91.7 ± 6.0, the “K (Potassium)” value was 82.9 ± 3.6, the “LY (Lymphocytes)” value came to 124.1 ± 34.4 and the “MCH (Mean corpuscular hemoglobin)” value was found to be 103.0 ± 10.7. In series [4], the “MCV (Mean corpuscular volume)” value came out at 105.0 ± 2.0, the “MO (Monocytes)” value is 66.6 ± 33.3, the “MPV (Mean platelet volume)” value came to 82.7 ± 3.7 and the “NA (Sodium)” value was 99.3 ± 0.6. In addition, in series [4], the “NE (Neutrophils)” value was 148.3 ± 51.7, the “PLT (Platelet count)” value was 164.5 ± 3.7, the “RBC (Red Blood Cells)” value was 89.2 ± 3.0 and the “TBILI (Total bilirubin)” value is given as 78.2 ± 6.5. In addition, in series [4], the “TPROT (Total protein)” value is listed as 91.3 ± 1.4 and the “WBC (White blood count)” value worked out at 136.0 ± 42.6.
Regarding `CCC1CC1CC1CC1CC1CC1CC1CC1CC1CC1CC1CC1CCC(=O)OC` (centres unmarked) [DHA-CP6-methyl ester], the “PKC-ε specificity versus PKC-α and PKC-δ” value at PKC-ε is “PKC-ε specificity ±15% PKC-α and PKC-δ”.
Regarding `CN[C@@H]1C[C@H]2O[C@@](C)([C@@H]1OC)n1c3ccccc3c3c4c(c5c6ccccc6n2c5c31)C(=O)NC4` [staurosporin], the “effect of pretreatment on bryostatin-enhanced sAPP-α secretion” value in the series with sAPP-α is “completely abolished the effect of bryostatin”.
Regarding `Cn1cc(C2=C(c3cn(CCCSC(=N)N)c4ccccc34)C(=O)NC2=O)c2ccccc21` [Ro 31-8220], the “effect on bryostatin-promoted induction of mushroom spine synapses” value in series [5] is recorded as “inhibited”.
